Laboratory results reported in patent publication US10688093B2, “Methods, compositions, and uses of novel Fyn kinase inhibitors” (priority 2015, dated 2020).

Molecular target: full-length recombinant human FYN A (Homo sapiens (Human), UniProt P06241)
Assay: ADP-Glo Kinase Assay of FYN kinase inhibition
Type: biochemical
Conditions: primary screen, initial compounds
In short: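 ADP-Glo read-out of peptide phosphorylation after 90 min RT with 12.5 pmol ATP and 100 pg 12-mer substrate. Enzyme was N-GST full-length human FYN A from insect cells, 3 pg, pre-incubated 30 min with compound, 10 points from 10 μM top, 3-fold steps; IC50 from curve.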

Sequence of full-length recombinant human FYN A (P06241 whole entry): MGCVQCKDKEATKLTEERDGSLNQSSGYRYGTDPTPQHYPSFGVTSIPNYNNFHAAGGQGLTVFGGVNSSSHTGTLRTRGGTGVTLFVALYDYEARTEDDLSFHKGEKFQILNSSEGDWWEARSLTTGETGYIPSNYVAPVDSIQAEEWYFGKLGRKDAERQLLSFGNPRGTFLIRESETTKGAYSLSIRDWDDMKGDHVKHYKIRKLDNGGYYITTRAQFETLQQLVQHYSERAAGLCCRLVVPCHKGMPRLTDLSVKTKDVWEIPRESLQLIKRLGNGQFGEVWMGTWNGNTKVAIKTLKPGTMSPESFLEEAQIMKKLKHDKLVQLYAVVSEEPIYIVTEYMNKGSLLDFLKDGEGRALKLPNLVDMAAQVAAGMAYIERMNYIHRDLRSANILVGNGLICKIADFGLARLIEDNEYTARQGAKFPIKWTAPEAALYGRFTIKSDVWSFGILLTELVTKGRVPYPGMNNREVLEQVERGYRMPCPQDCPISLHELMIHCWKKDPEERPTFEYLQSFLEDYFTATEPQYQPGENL

Row | SMILES | IC50 [nM]
1 | CC(=O)c1cccc(-c2cnc3ccc(-c4cnn(C)c4)nn23)c1 [Compound 358, 1-[3-[6-(1-methylpyrazol-4-yl)imidazo[1,2-3]pyridazin-3-yl]phenyl] ethanone] | 373
2 | CS(=O)(=O)Nc1cccc(-c2ccc3ncc(-c4cccs4)n3n2)c1 [Compound 359, N-[3-[3-(2-thienyl)imidazo [1,2-b]pyridazin-6-yl]phenyl] methane-sulfonamide] | 1210
3 | c1cncc(-c2ccc3ncc(-c4ccc5c(c4)OCO5)n3n2)c1 [Compound 360, 3-(1,3-benzodioxol-5-yl)-6-(3-pyridyl)imidazo [1,2-b]pyridazine] | 688
4 | OCc1ccc(-c2ccc3ncc(-c4cccnc4)n3n2)cc1 [Compound 361, [4-[3-(3-pyridyl)imidazo [1,2-b]pyridazin-6-yl]phenyl] methanol] | 2910
5 | OCc1ccc(-c2ccc3ncc(-c4cccc(O)c4)n3n2)cc1 [Compound 363, 3-[6-[4-(hydroxymethyl)phenyl]imidazo [1,2-b]pyridazin-3-yl]phenol] | 285
6 | COc1ccccc1-c1ccc2ncc(-c3ccc(CO)cc3)n2n1 [Compound 364] | 3900
7 | COc1cccc(-c2ccc3ncc(-c4ccc(CO)cc4)n3n2)c1 [Compound 365, [4-[6-(3-methoxyphenyl)imidazo[1,2-b]pyridazin-3-yl]phenyl] methanol] | 1560
8 | COc1cccc(-c2ccc3ncc(-c4ccc(O)c(OC)c4)n3n2)c1 [Compound 366, 2-methoxy-4-[6-(3-methoxyphenyl)imidazo[1,2-b]pyridazin-3-yl]phenol] | 221
9 | CC(=O)c1cccc(-c2cnc3ccc(-c4ccoc4)nn23)c1 [Compound 367, 1-[3-[6-(3-furyl)imidazo [1,2-b]pyridazin-3-yl]phenyl] ethanone] | 3440
10 | NC(=O)c1ccc(-c2ccc3ncc(-c4cccs4)n3n2)cc1 [Compound 368, 4-[3-(2-thienyl)imidazo [1,2-b]pyridazin-6-yl]benzamide] | 951
11 | O=C(NCCO)c1cccc(-c2ccc3ncc(-c4ccc5c(c4)OCO5)n3n2)c1 [Compound 369, 3-[3-(1,3-benzodioxol-5-yl)imidazo[1,2-b]pyridazin-6-yl]-N-(2-hydroxyethyl) benzamide] | 367
12 | OCc1cccc(-c2ccc3ncc(-c4ccc5c(c4)OCO5)n3n2)c1 [Compound 370, [3-[3-(1,3-benzodioxol-5-yl)imidazo[1,2-b]pyridazin-6-yl]phenyl] methanol] | 332
13 | CC(=O)Nc1cccc(-c2cnc3ccc(-c4cccs4)nn23)c1 [Compound 371, N-[3-[6-(2-thienyl)imidazo [1,2-b]pyridazin-3-yl]phenyl] acetamide] | 210
14 | Oc1cccc(-c2cnc3ccc(-c4ccccc4)nn23)c1 [Compound 372, 3-(6-phenylimidazo [1,2-b]pyridazin-3-yl)phenol] | 894
15 | CC(=O)c1cccc(-c2ccc3ncc(-c4cccc(O)c4)n3n2)c1 [Compound 373, 1-[3-[3-(3-hydroxyphenyl)imidazo[1,2-b]pyridazin-6-yl]phenyl] ethanone] | 1600
16 | OCc1ccc(-c2cnc3ccc(-c4cccc(F)c4)nn23)cc1 [Compound 374, [4-[6-(3-fluorophenyl)imidazo[1,2-b]pyridazin-3-yl]phenyl] methanol] | 2960
17 | CC(=O)c1cccc(-c2ccc3ncc(-c4cccc(CO)c4)n3n2)c1 [Compound 375, 1-[3-[3-[3-(hydroxymethyl)phenyl]imidazo [1,2-b]pyridazin-6-yl]phenyl] ethanone] | 2170
18 | CC(=O)c1cccc(-c2cnc3ccc(-c4cccc(N(C)C)c4)nn23)c1 [Compound 376, 1-[3-[6-[3-(dimethylamino)phenyl]imidazo [1,2-b]pyridazin-3-yl]phenyl] ethanone] | 886
19 | CC(=O)c1cccc(-c2cnc3ccc(-c4ccc(N)nc4)nn23)c1 [Compound 377, 1-[3-[6-(6-amino-3-pyridyl)imidazo[1,2-b]pyridazin-3-yl]phenyl] ethanone] | 283
20 | OCc1ccc(-c2ccc3ncc(-c4cccs4)n3n2)cc1 [Compound 378, [4-[3-(2-thienyl)imidazo [1,2-b]pyridazin-6-yl]phenyl] methanol] | 2360
21 | Oc1cccc(-c2cnc3ccc(-c4ccncc4)nn23)c1 [Compound 382, 3-[6-(4-pyridyl)imidazo [1,2-b]pyridazin-3-yl]phenol] | 203

Second part, the molecule after the results:

Row | IC50 [nM] | SMILES
22 | 703 | COc1ccc(-c2cnc3ccc(-c4cccc(NS(C)(=O)=O)c4)nn23)cc1OC [Compound 379, N-[3-[3-(3,4-dimethoxyphenyl)imidazo[1,2-b]pyridazin-6-yl]phenyl] methane-sulfonamide]
23 | 519 | CC(=O)c1cccc(-c2cnc3ccc(-c4cccc(C(N)=O)c4)nn23)c1 [Compound 380, 3-[3-(3-acetylphenyl)imidazo[1,2-b]pyridazin-6-yl]benzamide]
24 | 1410 | CS(=O)(=O)Nc1cccc(-c2ccc3ncc(-c4cccnc4)n3n2)c1 [Compound 381, N-[3-[3-(3-pyridyl)imidazo [1,2-b]pyridazin-6-yl]phenyl] methane-sulfonamide]
25 | 14600 | Oc1cccc(-c2cnc3ccc(-c4cccc5ncccc45)nn23)c1 [Compound 383, 3-[6-(5-quinolyl)imidazo [1,2-b]pyridazin-3-yl]phenol]
26 | 1150 | CS(=O)(=O)Nc1cccc(-c2ccc3ncc(-c4cccc(CO)c4)n3n2)c1 [Compound 384]
27 | 959 | COc1cc(-c2cnc3ccc(-c4ccccc4OC)nn23)ccc1O [Compound 385, 2-methoxy-4-[6-(2-methoxy-phenyl)imidazo[1,2-b]pyridazin-3-yl]phenol]
28 | 1720 | CNC(=O)c1cccc(-c2ccc3ncc(-c4cccc(C(C)=O)c4)n3n2)c1 [Compound 386, 3-[3-(3-acetylphenyl)imidazo[1,2-b]pyridazin-6-yl]-N-methyl-benzamide]
29 | 1680 | OCc1cccc(-c2ccc3ncc(-c4cccs4)n3n2)c1 [Compound 387, [3-[3-(2-thienyl)imidazo [1,2-b]pyridazin-6-yl]phenyl] methanol]
30 | 1310 | Cn1cc(-c2ccc3ncc(-c4cccs4)n3n2)cn1 [Compound 388, 6-(1-methylpyrazol-4-yl)-3-(2-thienyl)imidazo [1,2-b]pyridazine]
31 | 367 | COc1ccc(-c2cnc3ccc(-c4cccc(C(=O)NCCO)c4)nn23)cc1OC [Compound 389, 3-[3-(3,4-dimethoxyphenyl)imidazo[1,2-a]pyridazin-6-yl]-N-(2-hydroxyethyl) benzamide]
32 | 956 | Cn1cc(-c2ccc3ncc(-c4ccc5c(c4)OCO5)n3n2)cn1 [Compound 390, 3-(1,3-benzodioxol-5-yl)-6-(1-methylpyrazol-4-yl)imidazo[1,2-b]pyridazine]
33 | 367 | COc1ccc(-c2cnc3ccc(-c4cnn(C)c4)nn23)cc1OC [Compound 391, 3-(3,4-dimethoxy-phenyl)-6-(1-methylpyrazol-4-yl)imidazo[1,2-b]pyridazine]
34 | 2260 | Oc1cccc(-c2cnc3ccc(-c4cccc(F)c4)nn23)c1 [Compound 392, 3-[6-(3-fluorophenyl)imidazo[1,2-b]pyridazin-3-yl]phenol]
35 | 1120 | CC(=O)c1cccc(-c2cnc3ccc(-c4cccc(N)c4)nn23)c1 [Compound 393, 1-[3-[6-(3-aminophenyl)imidazo[1,2-b]pyridazin-3-yl]phenyl] ethanone]
36 | 2350 | COc1ccccc1-c1ccc2ncc(-c3cccnc3)n2n1 [Compound 394, 6-(2-methoxy-phenyl)-3-(3-pyridyl)imidazo [1,2-b]pyridazine]
37 | 404 | COc1ccc(-c2cnc3ccc(-c4ccncc4)nn23)cc1OC [Compound 395, 3-(3,4-dimethoxy-phenyl)-6-(4-pyridyl)imidazo [1,2-b]pyridazine]
38 | 586 | Oc1cccc(-c2cnc3ccc(-c4cccnc4)nn23)c1 [Compound 396, 3-[6-(3-pyridyl)imidazo [1,2-b]pyridazin-3-yl]phenol]
39 | 388 | Cn1cc(-c2ccc3ncc(-c4cccc(O)c4)n3n2)cn1 [Compound 397, 3-[6-(1-methylpyrazol-4-yl)imidazo[1,2-b]pyridazin-3-yl]phenol]
40 | 2940 | OCc1ccc(-c2cnc3ccc(-c4ccc(F)cc4)nn23)cc1 [Compound 398, [4-[6-(4-fluorophenyl)imidazo[1,2-3]pyridazin-3-yl]phenyl] methanol]
41 | 295 | COc1cc(-c2cnc3ccc(-c4cccc(O)c4)nn23)ccc1O [Compound 399, 4-[6-(3-hydroxyphenyl)imidazo[1,2-b]pyridazin-3-yl]-2-methoxy-phenol]
42 | 282 | COc1ccc(-c2ccc3ncc(-c4ccncc4)n3n2)cc1OC [Compound 400, 6-(3,4-dimethoxy-phenyl)-3-(4-pyridyl)imidazo [1,2-b]pyridazine]
43 | 2780 | Fc1ccc(-c2ccc3ncc(-c4cccnc4)n3n2)cc1 [Compound 401, 6-(4-fluorophenyl)-3-(3-pyridyl)imidazo [1,2-b]pyridazine]
44 | 9820 | OCc1cccc(-c2ccc3ncc(-c4cccc(Cl)c4)n3n2)c1 [Compound 402, [3-[3-(3-chlorophenyl)imidazo[1,2-b]pyridazin-6-yl]phenyl] methanol]
45 | 11900 | Oc1cccc(-c2cnc3ccc(-c4ccc(F)cc4)nn23)c1 [Compound 403, 3-[6-(4-fluorophenyl)imidazo[1,2-b]pyridazin-3-yl]phenol]
46 | 1970 | c1ccc(-c2cnc3ccc(-c4cccs4)nn23)cc1 [Compound 404, 3-phenyl-6-(2-thienyl)imidazo [1,2-b]pyridazine]
47 | 549 | COc1ccc(-c2cnc3ccc(-c4cccnc4)nn23)cc1OC [Compound 405, 3-(3,4-dimethoxy-phenyl)-6-(3-pyridyl)imidazo [1,2-b]pyridazine]
48 | 1650 | CC(=O)Nc1cccc(-c2ccc3ncc(-c4cccc(O)c4)n3n2)c1 [Compound 406, N-[3-[3-(3-hydroxyphenyl)imidazo[1,2-b]pyridazin-6-yl]phenyl] acetamide]
